The source of these data is patent US11236068B2, “Fused ring compounds” (Genentech, Inc., priority 2018, dated 2022).

Structures are written as SMILES.

The target of the experiment is K-Ras G12C (Homo sapiens (Human), UniProt P01116, G12C). Nature of the experiment: Western blot assay for in cell alkylation of K-Ras G12C (HCC1171 cells). It is filed as cell-based. The settings on record: 18 hours at 37° C., 7 point dose response. Here is the method: HCC1171 cells were maintained in RPMI1640 supplemented with 10% FBS. Cells were plated in a 96-well plate at 20,000 cells/well and the following day compounds were added to the cells. After 18 hours at 37° C., cells were lysed in RIPA buffer (Sigma RO278) with 0.5% SDS and protease/phosphatase inhibitor cocktail. After through mixing to enable complete lysis, the lysates were cleared by centrifugation before 20 µl was transferred from each well and combined with loading buffer and reducing agent. After heating for 10 minutes at 95° C., […] of each sample was loaded onto a 4-20% Tris-Glycine gel and electrophoresed at 110V for 165 minutes in SDS-PAGE running buffer. Gels were transferred to a nitrocellulose membrane, blocked for 1 hour and stained overnight at 4° C. with primary antibody against K-Ras (polyclonal Proteintech 12063-1-AP). The membrane was then washed thoroughly and counterstained with anti-rabbit IRDye 800CW (LI-COR 926-32211) for one hour at room temperature. After final washes, the membrane was imaged on a LI-COR Odyssey CLx at medium resolution. […] To quantify this affect, the LICOR software was used to draw a rectangle over alkylated and unalkylated bands for each well and measured the total fluorescent intensity (FI) in each of these bands. The following formula was then used to calculate % alkylation: FI(alkylated)/(FI(alkylated)+FI(unalkylated))*100 for each well.
Chain of K-Ras G12C (P01116 other isoform, or with tags, fused parts or gaps G12C): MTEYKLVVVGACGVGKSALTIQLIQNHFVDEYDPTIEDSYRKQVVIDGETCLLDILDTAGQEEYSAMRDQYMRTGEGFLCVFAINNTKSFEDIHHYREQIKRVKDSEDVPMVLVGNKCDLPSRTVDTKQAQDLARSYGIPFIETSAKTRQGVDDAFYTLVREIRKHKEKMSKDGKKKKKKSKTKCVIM
A 7 point dose response curve was used to determine the IC50 for each compound. Cell alkylation data are presented below in Table 3.
For the compound `C=CC(=O)N1CCN(c2ncnc3cc(-c4nc(N)ccc4OC(F)(F)F)c(Cl)cc23)CC1` [Example 40, 1-(4-[7-[6-amino-3-(trifluoromethoxy)pyridin-2-yl]-6-chloroquinazolin-4-yl]piperazin-1-yl)prop-2-en-1-one], it took 1100 nM to reach a half-maximal effect (EC50).
To `C=CC(=O)N1CCN(c2ncnc3cc(-c4nc(N)ccc4C(F)F)c(Cl)cc23)CC1` [Example 41, 1-(4-[7-[6-amino-3-(difluoromethyl)pyridin-2-yl]-6-chloroquinazolin-4-yl]piperazin-1-yl)prop-2-en-1-one] belongs 16000 nM.
In the case of `C=CC(=O)N1CCN(c2ncnc3cc(-c4nc(N)cc(C)c4C(F)(F)F)c(Cl)cc23)CC1` [Example 44, 1-(4-[7-[6-amino-4-methyl-3-(trifluoromethyl)pyridin-2-yl]-6-chloroquinazolin-4-yl]piperazin-1-yl)prop-2-en-1-one], the half-maximal effective concentration (EC50) was 62 nM.
To `C=CC(=O)N1CCN(c2nc(NCCN(C)C)nc3cc(-c4nc(N)ccc4C(F)(F)F)c(Cl)cc23)CC1` [Example 45, 1-(4-[7-[6-amino-3-(trifluoromethyl)pyridin-2-yl]-6-chloro-2-[[2-(dimethylamino)ethyl]amino]quinazolin-4-yl]piperazin-1-yl)prop-2-en-1-one] belongs 2400 nM; to `C=C(F)C(=O)N1CCN(c2ncnc3cc(-c4nc(N)ccc4C(F)(F)F)c(Cl)cc23)C[C@@H]1C#N` [Example 46b, (2R)-4-[7-[6-amino-3-(trifluoromethyl)pyridin-2-yl]-6-chloroquinazolin-4-yl]-1-(2-fluoroprop-2-enoyl)piperazine-2-carbonitrile], 270 nM; to `C=CC(=O)N1CCN(c2ncnc3cc(-c4nc(N)ccc4C4CC4)c(OC)cc23)CC1` [Example 47, 1-[4-[7-(6-amino-3-cyclopropylpyridin-2-yl)-6-methoxyquinazolin-4-yl]piperazin-1-yl]prop-2-en-1-one], 3900 nM.
`C=CC(=O)N1CCN(c2ncnc3cc(-c4nc(N)cc5ccc(F)cc45)c(Cl)cc23)CC1` [Example 49, 1-[4-[7-(3-amino-7-fluoroisoquinoline-1-yl)-6-chloroquinazolin-4-yl]piperazin-1-yl]prop-2-en-1-one] returned an EC50 of 250 nM.
To `C=CC(=O)N1CC(c2ncnc3cc(-c4nc(N)ccc4C(F)(F)F)c(Cl)cc23)C1` [Example 50, 1-(3-[7-[6-amino-3-(trifluoromethyl)pyridin-2-yl]-6-chloroquinazolin-4-yl]azetidin-1-yl)prop-2-en-1-one] belongs 5300 nM.
`C=CC(=O)N1CCN(c2ncnc3cc(-c4nc(N)ccc4CC(F)(F)F)c(Cl)cc23)CC1` [Example 51, 1-[4-[7-[6-amino-3-(2,2,2-trifluoroethyl)-2-pyridyl]-6-chloro-quinazolin-4-yl]piperazin-1-yl]prop-2-en-1-one] showed an EC50 of 2800 nM.
In turn, `C=CC(=O)N1CCN(c2ncnc3cc(-c4nc(N)cc(CC)c4C(F)(F)F)c(Cl)cc23)CC1` [Example 52, 1-[4-[7-[6-amino-4-ethyl-3-(trifluoromethyl)-2-pyridyl]-6-chloro-quinazolin-4-yl]piperazin-1-yl]prop-2-en-1-one] returned an EC50 of 86 nM.
For `C=CC(=O)N1CCN(c2ncnc3cc(-c4nc(NC)ccc4C(F)(F)F)c(Cl)cc23)CC1` [Example 53, 1-(4-[6-chloro-7-[6-(methylamino)-3-(trifluoromethyl)pyridin-2-yl]quinazolin-4-yl]piperazin-1-yl)prop-2-en-1-one], the EC50 came to 3400 nM.
Regarding `C=CC(=O)N1CCN(c2ncnc3cc(-c4nc(N)ccc4C(F)(F)F)c(Cl)cc23)[C@@H](C)C1` [Example 54, 1-[(3S)-4-[7-[6-amino-3-(trifluoromethyl)pyridin-2-yl]-6-chloroquinazolin-4-yl]-3-methylpiperazin-1-yl]prop-2-en-1-one], the response was half-maximal at 140 nM (EC50).
To `C=C(F)C(=O)N1CCN(c2nc(OC[C@@H]3CCCN3C)nc3cc(-c4nc(N)cc(C)c4C(F)(F)F)c(Cl)cc23)CC1CC#N` (stereo partly drawn) [Example 55, 2-[4-[7-[6-amino-4-methyl-3-(trifluoromethyl)-2-pyridyl]-6-chloro-2-[[(2S)-1-methylpyrrolidin-2-yl]methoxy]quinazolin-4-yl]-1-(2-fluoroprop-2-enoyl)piperazin-2-yl]acetonitrile] belongs 26 nM.
In turn, `C=C(F)C(=O)N1CCN(c2nc(OC[C@@H]3C[C@@H](F)CN3C)nc3cc(-c4nc(N)cc(C)c4C(F)(F)F)c(Cl)cc23)CC1CC#N` (stereo partly drawn) [Example 56, 2-[4-[7-[6-amino-4-methyl-3-(trifluoromethyl)-2-pyridyl]-6-chloro-2-[[(2S,4R)-4-fluoro-1-methyl-pyrrolidin-2-yl]methoxy]quinazolin-4-yl]-1-(2-fluoroprop-2-enoyl)piperazin-2-yl]acetonitrile] came in with an EC50 of 26 nM.
`C=C(F)C(=O)N1CCN(c2nc(OC[C@@H]3CCCN3C)nc3cc(-c4nc(N)cc(C)c4C(F)(F)F)c(Cl)cc23)CC1CF` (stereo partly drawn) [Example 57, 1-[4-[7-[6-amino-4-methyl-3-(trifluoromethyl)-2-pyridyl]-6-chloro-2-[[(2S)-1-methylpyrrolidin-2-yl]methoxy]quinazolin-4-yl]-2-(fluoromethyl)piperazin-1-yl]-2-fluoro-prop-2-en-1-one] displayed an EC50 of 230 nM.
Consider `C=C(F)C(=O)N1CC(C)N(c2nc(OC[C@@H]3C[C@@H](F)CN3C)nc3cc(-c4nc(N)cc(C)c4C(F)(F)F)c(Cl)cc23)C[C@H]1CC#N` (stereo partly drawn) [Example 58, 2-[(2R)-4-[7-[6-amino-4-methyl-3-(trifluoromethyl)-2-pyridyl]-6-chloro-2-[[(2S,4R)-4-fluoro-1-methyl-pyrrolidin-2-yl]methoxy]quinazolin-4-yl]-1-(2-fluoroprop-2-enoyl)-5-methyl-piperazin-2-yl]acetonitrile], for which the EC50 came to 33 nM.
Take `C=CC(=O)N1C[C@H](C)N(c2ncnc3cc(-c4nc(N)cc(C)c4C(F)(F)F)c(Cl)cc23)[C@@H](C)C1` [Example 60, 1-[(3S,5S)-4-[7-[6-amino-4-methyl-3-(trifluoromethyl)-2-pyridyl]-6-chloro-quinazolin-4-yl]-3,5-dimethyl-piperazin-1-yl]prop-2-en-1-one]: a half-maximal response (EC50) required 72 nM.
Consider `C=CC(=O)N1CCN(c2nc(OC3CCCC3N(C)C)nc3cc(-c4nc(N)cc(C)c4C(F)(F)F)c(Cl)cc23)[C@@H](C)C1` (stereo partly drawn) [Example 66, 1-[(3S)-4-[7-[6-amino-4-methyl-3-(trifluoromethyl)-2-pyridyl]-6-chloro-2-[2-(dimethylamino)cyclopentoxy]quinazolin-4-yl]-3-methyl-piperazin-1-yl]prop-2-en-1-one], for which it took 28 nM to reach a half-maximal effect (EC50).
For the compound `C=CC(=O)N1CCN(c2nc(OC[C@@H]3CCC4(CC4)N3C)nc3cc(-c4nc(N)ccc4C(F)(F)F)c(Cl)cc23)CC1` [Example 72, (S)-1-(4-(7-(6-amino-3-(trifluoromethyl)pyridin-2-yl)-6-chloro-2-((4-methyl-4-azaspiro[2.4]-heptan-5-yl)methoxy)quinazolin-4-yl)piperazin-1-yl)prop-2-en-1-one], the EC50 worked out at 55 nM.
The compound `C=CC(=O)N1CCN(c2nc(OCC3(C)CC(F)(F)CN3C)nc3cc(-c4nc(N)ccc4C(F)(F)F)c(Cl)cc23)CC1` (stereo not drawn) [Example 73, 1-(4-(7-(6-amino-3-(trifluoromethyl)pyridin-2-yl)-6-chloro-2-((4,4-difluoro-1,2-dimethylpyrrolidin-2-yl)methoxy)quinazolin-4-yl)piperazin-1-yl)prop-2-en-1-one] showed an EC50 of 110 nM.
With `C=CC(=O)N1CCN(c2nc(OC(C)(C)[C@@H]3CCCN3C)nc3cc(-c4nc(N)ccc4C(F)(F)F)c(Cl)cc23)CC1` [Example 74, 1-[4-[7-[6-amino-3-(trifluoromethyl)-2-pyridyl]-6-chloro-2-[1-methyl-1-[(2S)-1-methylpyrrolidin-2-yl]ethoxy]quinazolin-4-yl]piperazin-1-yl]prop-2-en-1-one], it took 110 nM to reach a half-maximal effect (EC50).
Take `C=CC(=O)N1CCN(c2nc(OCCN3CC(CF)C3)nc3cc(-c4nc(N)ccc4C(F)(F)F)c(Cl)cc23)CC1` [Example 76, 1-(4-(7-(6-amino-3-(trifluoromethyl)pyridin-2-yl)-6-chloro-2-(2-(3-(fluoromethyl)azetidin-1-yl)ethoxy)quinazolin-4-yl)piperazin-1-yl)prop-2-en-1-one]: the EC50 was 140 nM.
Take `C=CC(=O)N1CCN(c2nc(OC[C@@H]3[C@@H](F)CCN3C)nc3cc(-c4nc(N)ccc4C(F)(F)F)c(Cl)cc23)CC1` [Example 77, 1-[4-[7-[6-amino-3-(trifluoromethyl)-2-pyridyl]-6-chloro-2-[[(2R,3S)-3-fluoro-1-methyl-pyrrolidin-2-yl]methoxy]quinazolin-4-yl]piperazin-1-yl]prop-2-en-1-one]: the EC50 is 25 nM.
The compound `C=CC(=O)N1CCN(c2nc(OC[C@@H]3[C@H]4C[C@H]4CN3C)nc3cc(-c4nc(N)ccc4C(F)(F)F)c(Cl)cc23)CC1` [Example 78a, 1-(4-(7-(6-amino-3-(trifluoromethyl)pyridin-2-yl)-6-chloro-2-(((1S,2S,5R)-3-methyl-3-azabicyclo[3.1.0]hexan-2-yl)methoxy)quinazolin-4-yl)piperazin-1-yl)prop-2-en-1-one] gave an EC50 of 56 nM.

As usually defined, the EC50 is the midpoint of the concentration-response curve. High values mean a less potent agent, low ones a more potent agent.
